From US20240217966A1, “PHARMACEUTICAL COMPOSITION CONTAINING GLP-1 RECEPTOR AGONIST HAVING FUSED RING” (Shionogi & Co., Ltd., priority 2021, published 2024)
Like-named read-outs stand apart in the source and are kept apart here.

Columns and labels:
[1] = Metabolism stability test (Test Example 2-2); format: in vitro ADME; details: pooled human liver microsomes 0.5 mg protein/mL, 37° C., 30 minutes, 1 mmol/L NADPH (oxidative reaction), compound concentration 0.5 μmol/L
Description: Test Example 2-2: Metabolism Stability Test
Using commercially available pooled human liver microsomes, a compound of the present invention is reacted for a constant time, and a remaining rate is calculated by comparing a reacted sample and an unreacted sample, thereby, a degree of metabolism in liver is assessed.
A reaction is performed (oxidative reaction) at 37° C. for 0 minute or 30 minutes in the presence of 1 mmol/L NADPH in 0.2 mL of a buffer (50 mmol/L Tris-HCl pH 7.4, 150 mmol/L potassium chloride, 10 mmol/L magnesium chloride) containing 0.5 mg protein/mL of human liver microsomes. After the reaction, 70 μL of the reaction solution is added to 140 μL of a methanol/acetonitrile=1/1 (v/v), mixed and centrifuged at 3000 rpm for 15 minutes. The compound of the present invention in the centrifuged supernatant is quantified by LC/MS/MS or solid-phase extraction (SPE)/MS. The ratio of the amount of the compound after the reaction, with respect to the amount of the compound at 0 minutes of the reaction defined as 100%, is shown as the residual rate. Hydrolysis reaction is performed in the absence of NADPH, and glucuronidation reaction is performed in the presence of 5 mmol/L UDP-glucuronic acid instead of NADPH. Then, the same operation is carried out. The dilution concentration or the dilution solvent are changed as necessary.
The compounds of the present invention were tested essentially as described above.

Human GLP-1 receptor = biological target: T1, Human GLP-1 receptor (Homo sapiens, UniProt P43220); assay: Measurement of GLP-1 receptor agonist activity (cAMP assay); format: cell-based
T1 construct: expressed in transfected cells
T1 sequence (P43220 24-463): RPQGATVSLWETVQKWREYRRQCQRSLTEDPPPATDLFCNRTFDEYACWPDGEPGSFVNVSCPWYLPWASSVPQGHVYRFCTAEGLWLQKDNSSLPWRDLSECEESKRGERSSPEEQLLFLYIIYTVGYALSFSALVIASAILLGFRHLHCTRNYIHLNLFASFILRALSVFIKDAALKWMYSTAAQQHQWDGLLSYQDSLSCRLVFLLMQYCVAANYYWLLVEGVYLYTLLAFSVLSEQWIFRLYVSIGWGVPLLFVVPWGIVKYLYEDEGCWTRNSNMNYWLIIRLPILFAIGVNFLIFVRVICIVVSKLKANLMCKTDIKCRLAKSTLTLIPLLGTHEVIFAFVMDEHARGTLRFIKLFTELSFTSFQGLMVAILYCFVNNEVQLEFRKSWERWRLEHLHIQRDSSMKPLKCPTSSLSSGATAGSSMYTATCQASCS
How it was run: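 hGLP-1R/CHO-K1 cells in HBSS with 0.1% BSA, 20 mM HEPES, 0.1 mM IBMX and 0.2 mM RO20-1724 exposed to compound plus forskolin (400 μM stock) for 1 h at 37 °C. Intracellular cAMP read by HTRF (cAMP-d2/anti-cAMP cryptate, 1 h at room temperature).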

[2] = CHO-K1, hGLP-1R/CHO-K1 cells, cAMP, 100% = human GLP-1 (7-36) at 2 nM, 0% = DMSO only, read-out: Emax(%)
[3] = hGLP-1R/CHO-K1 cells, cAMP increase, 37° C. 1 hour
[4] = CHO-K1, maximum effect, cAMP increase in GLP-1 R/CHO-K1 cells, 2 nM human GLP-1 (7-36) = 100%, DMSO only = 0%, read-out: Emax
[5] = cAMP increase in GLP-1 R/CHO-K1 cells, 2 nM human GLP-1 (7-36) = 100%, DMSO only = 0%

Row | Structure (SMILES) | residual rate of the compound [1] [%] | Emax (Human GLP-1 receptor; [2]) [%] | EC50 (Human GLP-1 receptor; [3]) [nM] | Emax (Human GLP-1 receptor; [4]) [%] | EC50 (Human GLP-1 receptor; [5]) [nM]
1 | O=C(O)c1cc(F)c2nc(CN3CCc4cc(C(F)(F)F)c(OCc5ccc(Cl)cc5F)cc4C3)n(C[C@@H]3CCO3)c2c1 [Compound I-033] | 87.1 | 109 | 1.49 |  | 
2 | O=C(O)c1ccc2nc(Cc3ccc4nc(C(F)(F)F)c(OCc5ccc(Cl)cc5F)nc4c3F)n(C[C@@H]3CCO3)c2c1 [Compound I-109] | 99.6 | 114 | 0.472 |  | 
3 | O=C(O)c1ccc2nc(CN3CCc4cc(C(F)(F)F)c(OCc5ccc(Cl)cc5C(F)(F)F)cc4C3)n(C[C@@H]3CCO3)c2c1 [Compound I-100] |  | 90.7 | 95.2 |  | 
4 | CS(=O)(=O)CCn1c(CN2CCc3cc(C(F)(F)F)c(OCc4ccc(Cl)cc4F)cc3C2)nc2ccc(C(=O)O)cc21 [Compound I-039] |  | 83.3 | 43.8 |  | 
5 | O=C(O)c1ccc2nc(CN3CCc4cc(C(F)(F)F)c(OCc5ccc(OC(F)F)cc5F)cc4C3)n(C[C@@H]3CCO3)c2c1 [Compound I-047] |  | 105 | 4.3 |  | 
6 | O=C(O)c1ccc2nc(CN3CCc4cc(Cl)c(OCc5ccc(Cl)cc5F)cc4C3)n(C[C@@H]3CCO3)c2n1 [Compound I-024] |  | 92.7 | 26.4 |  | 
7 | Cc1ccc(COc2cc3c(cc2C(F)(F)F)CCN(Cc2nc4ccc(C(=O)O)nc4n2C[C@@H]2CCO2)[C@H]3C)cc1 [Compound I-179] |  | 99 | 1.88 |  | 
8 | O=C(O)c1ccc2nc(CN3CCc4cc(C(F)(F)F)c(OCc5c(F)cccc5F)cc4C3)n(C[C@@H]3CCO3)c2c1 [Compound I-155] |  | 93.7 | 25.9 |  | 
9 | O=C(O)c1ccc2nc(CN3CCc4cc(C(F)(F)F)c(OCc5ccc(Cl)cc5Cl)nc4C3)n(C[C@@H]3CCO3)c2c1 [Compound I-269] |  |  |  | 109 | 1.16
10 | O=C(O)c1ccc2nc(CN3CCc4cc(C(F)(F)F)c(OCc5ccc(OC(F)F)cc5)cc4C3)n(C[C@@H]3CCO3)c2c1 [Compound I-082] |  | 103 | 2.32 |  | 
11 | C[C@H]1c2nc(OCc3ccc(C#N)cc3F)c(C(F)(F)F)cc2CCN1Cc1nc2c(F)cc(C(=O)O)cc2n1C[C@@H]1CCO1 [Compound I-241] |  |  |  | 125 | 0.0302
12 | COc1ccc(COc2cc3c(cc2C(F)(F)F)CCN(Cc2nc4ccc(C(=O)O)cc4n2C[C@@H]2CCO2)C3)cc1 [Compound I-104] |  | 102 | 4.78 |  | 

Further lines, results first:

Row | residual rate of the compound [1] [%] | Emax (Human GLP-1 receptor; [2]) [%] | EC50 (Human GLP-1 receptor; [3]) [nM] | Emax (Human GLP-1 receptor; [4]) [%] | EC50 (Human GLP-1 receptor; [5]) [nM] | Structure (SMILES)
13 | 96.9 | 117 | 0.327 |  |  | C[C@H]1c2cc(OCc3ccc(Cl)cc3F)c(C(F)(F)F)cc2CCN1Cc1nc2ccc(C(=O)O)c(F)c2n1C[C@@H]1CCO1 [Compound I-117]
14 | 87.1 | 129 | 0.298 |  |  | C[C@H]1c2cc(OCc3ccc(Cl)cc3F)c(C(F)(F)F)cc2CCN1Cc1nc2ccc(C(=O)O)cc2n1C[C@@H]1CCO1 [Compound I-035]
15 | > 99.9 | 97.7 | 3.76 |  |  | C[C@H]1c2cc(OCc3ccc(F)cc3)c(C(F)(F)F)cc2CCN1Cc1nc2ccc(C(=O)O)cc2n1C[C@@H]1CCO1 [Compound I-123]
16 | 92.4 | 118 | 0.0524 |  |  | C[C@H]1c2nc(OCc3ccc(Cl)cc3F)c(C(F)(F)F)cc2CCN1Cc1nc2ccc(C(=O)O)c(F)c2n1C[C@@H]1CCO1 [Compound I-160]
17 | 94.0 | 108 | 0.0938 |  |  | C[C@H]1c2nc(OCc3ccc(Cl)cc3F)c(C(F)(F)F)cc2CCN1Cc1nc2ccc(C(=O)O)cc2n1C[C@@H]1CCO1 [Compound I-145]
18 |  | 109 | 0.0824 |  |  | COc1cc(Cl)ccc1COc1cc2c(cc1C(F)(F)F)CCN(Cc1nc3c(F)cc(C(=O)O)cc3n1C[C@@H]1CCO1)[C@H]2C [Compound I-208]
19 |  |  |  | 101 | 1.7 | C[C@H]1c2cc(OCc3ccc(F)cc3F)c(Cl)cc2CCN1Cc1nc2ccc(C(=O)O)c(F)c2n1C[C@@H]1CCO1 [Compound I-323]
20 |  | 113 | 0.434 |  |  | C[C@H]1c2cc(OCc3ccc(F)cc3F)c(C(F)(F)F)cc2CCN1Cc1nc2c(F)cc(C(=O)O)cc2n1C[C@@H]1CCO1 [Compound I-210]
21 |  | 119 | 1.18 |  |  | O=C(O)c1cc(F)c2nc(CN3CCc4cc(C(F)(F)F)c(OCc5ccc(Cl)cc5F)cc4C3)n(C[C@@H]3CCO3)c2c1F [Compound I-134]
